The values that follow come from patent US20020098148A1, “NON-STEROIDAL RADIOLABELED AGONIST/ANTAGONIST COMPOUNDS AND THEIR USE IN PROSTATE CANCER IMAGING” (priority 1997, published 2002).

The conditions of data set [1]: Cockshott et al. 1991; cited from earlier work.
In data set [2] the target is T1, androgen receptor (AR) (Rattus norvegicus, UniProt P15207).
T1 construct: The minimum concentration of ^3H-MIB to saturate AR sites in the cytosol preparation was 1 nM; from tissue; host or cells: cytosol
T1 sequence (P15207 1-902): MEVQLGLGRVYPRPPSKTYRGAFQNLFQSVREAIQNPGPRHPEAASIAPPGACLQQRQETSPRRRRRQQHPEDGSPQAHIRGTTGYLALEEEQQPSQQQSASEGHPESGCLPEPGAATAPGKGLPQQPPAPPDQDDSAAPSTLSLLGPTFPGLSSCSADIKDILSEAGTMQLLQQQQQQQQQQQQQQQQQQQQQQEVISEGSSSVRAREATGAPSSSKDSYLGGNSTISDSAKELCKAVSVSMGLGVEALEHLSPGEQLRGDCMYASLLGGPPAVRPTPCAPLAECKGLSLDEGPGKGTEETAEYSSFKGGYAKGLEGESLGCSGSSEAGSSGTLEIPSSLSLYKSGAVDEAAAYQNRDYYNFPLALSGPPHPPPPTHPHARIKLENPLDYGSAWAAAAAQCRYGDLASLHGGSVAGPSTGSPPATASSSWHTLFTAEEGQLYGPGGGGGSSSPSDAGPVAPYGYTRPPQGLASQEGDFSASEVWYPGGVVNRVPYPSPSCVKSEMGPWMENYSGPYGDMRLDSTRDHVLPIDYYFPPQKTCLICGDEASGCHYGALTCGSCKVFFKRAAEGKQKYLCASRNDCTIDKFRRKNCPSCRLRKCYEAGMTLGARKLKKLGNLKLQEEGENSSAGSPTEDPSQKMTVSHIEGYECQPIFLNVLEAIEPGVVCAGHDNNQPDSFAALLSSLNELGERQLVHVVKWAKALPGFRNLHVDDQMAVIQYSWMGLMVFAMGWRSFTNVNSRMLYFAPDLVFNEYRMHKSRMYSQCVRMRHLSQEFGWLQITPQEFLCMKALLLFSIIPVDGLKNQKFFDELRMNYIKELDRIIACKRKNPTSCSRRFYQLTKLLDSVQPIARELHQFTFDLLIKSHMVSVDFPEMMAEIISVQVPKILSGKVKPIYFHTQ
Put plainly: AR competitive binding with 3H-mibolerone in cytosol.
Description: For the determination of non-specific binding, separate experiments were conducted by adding 1,000 nM MIB to the incubate. Unless otherwise indicated, all experiments were repeated three times or more. […] Radioactivity was counted in a liquid scintillation counter (Model LS6800, Beckman Instruments Inc., Palo Alto, Calif.).
To determine the Kd of MIB, data were analyzed using a modified form of the Scatchard equation:
where B was the concentration of specifically-bound ^3H-MIB in the incubate, F was the concentration of free ^3H-MIB in the incubate, and Bmax was the maximum concentration of ^3H-MIB specifically bound to AR, which is also the concentration of available AR binding sites in the incubate. […]
For competition binding experiments, competitive displacement curves were constructed for each ligand with percent specific binding (specific binding of ^3H-MIB at a particular ligand concentration expressed as a percentage of the specific binding of ^3H-MIB in the absence of ligand) on the vertical axis and ligand concentration on the horizontal axis. […]
where B0 is the specific binding of ^3H-MIB in the absence of ligand, and C is the ligand concentration. Binding affinities of the ligands were then compared using the equilibrium dissociation constant (Ki) of each ligand, as calculated using the equation below: […]

On to `CC(O)(CS(=O)(=O)c1ccc(F)cc1)C(=O)Nc1ccc(C#N)c(C(F)(F)F)c1` (racemic) [racemic ^14C-labeled bicalutamide, bicalutamide], for which the “share of radioactivity in plasma accounted for by parent compound” value in data set [1] is “virtually all of the radioactivity in plasma”. The term Ki denotes the dissociation constant of the complex between target and ligand, obtained from inhibition or displacement. A high value points to lower affinity. `C[C@](O)(CS(=O)(=O)c1ccc(I)cc1)C(=O)Nc1ccc(C#N)c(C(F)(F)F)c1` [Compound 2]: in data set [2], the Ki was found to be 3.1 nM. Also, the “Ki value lower than that of R-Bicalutamide” value in data set [2] (R-isomer) worked out at 73%.
